The values below come from patent publication US20120088753A1, “PYRROLOPYRIMIDINES AND USED AS KINASE INHIBITORS” (MEDICAL RESEARCH COUNCIL TECHNOLOGY, priority 2009, published 2012).

By pIC50 is commonly meant the negative decadic logarithm of the IC50, by convention in mol/L.

pIC50: −log10 of the molar value.

The experiment has as its target T1, TBK1 (Homo sapiens, UniProt Q9UHD2).
T1 construct: All protein kinases were of human origin and encoded full length proteins, unless indicated otherwise; His6; made in house; host or cells: insect Sf21 cells
T1 sequence (Q9UHD2 1-729): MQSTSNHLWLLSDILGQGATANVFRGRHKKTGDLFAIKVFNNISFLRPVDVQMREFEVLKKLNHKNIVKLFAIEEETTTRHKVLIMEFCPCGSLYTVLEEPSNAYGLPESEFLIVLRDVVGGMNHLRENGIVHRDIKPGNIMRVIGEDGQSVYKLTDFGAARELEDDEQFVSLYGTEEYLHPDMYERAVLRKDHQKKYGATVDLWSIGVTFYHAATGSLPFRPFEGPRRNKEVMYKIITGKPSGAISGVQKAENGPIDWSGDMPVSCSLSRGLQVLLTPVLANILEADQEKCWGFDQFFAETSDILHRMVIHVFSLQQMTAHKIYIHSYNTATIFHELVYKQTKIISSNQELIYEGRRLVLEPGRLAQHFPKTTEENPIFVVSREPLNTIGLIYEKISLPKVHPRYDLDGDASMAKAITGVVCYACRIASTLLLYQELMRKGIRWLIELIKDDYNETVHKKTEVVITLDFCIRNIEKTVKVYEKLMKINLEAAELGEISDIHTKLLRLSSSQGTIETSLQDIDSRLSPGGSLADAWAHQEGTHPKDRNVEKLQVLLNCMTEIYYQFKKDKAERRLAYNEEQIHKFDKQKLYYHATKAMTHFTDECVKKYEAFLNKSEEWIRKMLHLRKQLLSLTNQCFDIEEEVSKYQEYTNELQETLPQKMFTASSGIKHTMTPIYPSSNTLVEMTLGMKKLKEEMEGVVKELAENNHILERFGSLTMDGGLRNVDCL
As to the kind of experiment: TBK1 protein kinase assay ([γ-33P]ATP filter-plate, IC50 from 10 concentrations). The class given is biochemical. Conditions: 50 μM ATP, peptide substrate 300 μM, 30 min, 21° C.; read-out: Potency score (TBK1 IC50). The text has this: All protein kinases were of human origin and encoded full length proteins, unless indicated otherwise. They were either expressed as glutathione S-transferase (GST) fusion proteins in Escherichia Coli or as hexahistidine (His6)-tagged proteins in insect Sf21 cells. GST fusion proteins were purified by affinity chromatography on glutathione-Sepharose, and His6-tagged proteins on nickel/nitriloacetate-agarose. The procedures for expressing some of the protein kinases used herein have been detailed previously.^8,9 The following sections outline the DNA vectors synthesised and the procedures used to express and purifying protein kinases that have not been reported previously.
The following kinases were expressed in Sf21 cells: Aurora B and Aurora C, extra-cellular signal-regulated kinase 8 (ERK8), microtubule affinity regulating kinase 3 (MARK3), protein kinase Bα[118-480][S473D], protein kinase Bβ (PKBβ[120-481][S474D], 3-phosphoinositide-dependent protein kinase-1 [52-556] (PDK1[52-556], IKKε, TBK1,
All assays (25.5 μl) were carried out at room temperature (21° C.) and were linear with respect to time and enzyme concentration under the conditions used. Assays were performed for 30 min using Multidrop Micro reagent dispensers (Thermo Electron Corporation, Waltham, Mass. 02454, USA) in a 96-well format. The concentration of magnesium acetate in the assays was 10 mM and the [γ-33P] ATP (800 cpm/pmol) was used at 5, 20 or 50 μM as indicated, in order to be at or below the Km for ATP for each enzyme. Protein kinases assayed at 5 μM ATP were: ERK1, ERK8, PKBα, MARK3, Aurora C. Protein kinases assayed at 20 μM ATP were: JNK1, PDK1, CHK1, CHK2, CDK2 and Aurora B. Protein kinases assayed at 50 μM ATP were: MNK2, IKKepsilon and TBK1.
The assays were initiated with MgATP, stopped by addition of 5 μl of 0.5 M orthophosphoric acid and spotted on to P81 filterplates using a unifilter harvester (PerkinElmer, Boston, Mass. 02118, USA). The IC50 values of inhibitors were determined after carrying out assays at 10 different concentrations of each compound.
ERK1 and ERK8 were both assayed against myelin basic protein (MBP, 0.33 mg/ml). MARK3 was assayed against the peptide […] (300 μM), MNK2 against the eIF4E protein (0.5 mg/ml). PKBβ was assayed against the peptide GRPRTSSFAEGKK (30 μM). TBK1 were assayed against ([…]) (300 μM). The substrates used for other protein kinases were described previously.^8,9
Unless stated otherwise, enzymes were diluted in 50 mM Tris/HCl pH 7.5, 0.1 mM EGTA, 1 mg/ml BSA, 0.1% (v/v) 2-mercaptoethanol and assayed in 50 mM Tris/HCl pH 7.5, 0.1 mM EGTA, 0.1% (v/v) 2-mercaptoethanol.

For `O=C(NCCCn1ccc2cnc(Nc3ccc(-c4cnco4)cc3)nc21)C1CCC1` [Example 54, Cyclobutanecarboxylic acid {3-[2-(4-oxazol-5-yl-phenylamino)-pyrrolo[2,3-d]pyrimidin-7-yl]-propyl}-amide], the pIC50 is greater than 7.00.
With `O=C(NCCCn1ccc2cnc(Nc3ccc4nccnc4c3)nc21)C1CCC1` [Example 46, Cyclobutanecarboxylic acid {3-[2-(quinoxalin-6-ylamino)-pyrrolo[2,3-d]pyrimidin-7-yl]-propyl}-amide] the figure was greater than 7.00; with `O=C(NCCCn1ccc2cnc(Nc3ccc4[nH]ncc4c3)nc21)C1CCC1` [Example 40, Cyclobutanecarboxylic acid {3-[2-(1H-indazol-5-ylamino)-pyrrolo[2,3-d]pyrimidin-7-yl]-propyl}-amide], greater than 7.00; with `CN1CCCN(c2ccc(Nc3ncc4ccn(CCCNC(=O)C5CCC5)c4n3)cn2)CC1` [Example 55, Cyclobutanecarboxylic acid (3-{2-[6-(4-methyl-perhydro-1,4-diazepin-1-yl)-pyridin-3-ylamino]-pyrrolo[2,3-d]pyrimidin-7-yl}-propyl)-amide], 6.00 to 7.00.
With `CN1CCC(O)(c2ccc(Nc3ncc4ccn(CCCNC(=O)C5CCC5)c4n3)cc2)CC1` [Example 57, Cyclobutanecarboxylic acid (3-{2-[4-(4-hydroxy-1-methyl-piperidin-4-yl)-phenylamino]-pyrrolo[2,3-d]pyrimidin-7-yl}-propyl)amide] the figure was greater than 7.00; with `O=C(NCCCn1ccc2cnc(Nc3ccc(N4CCOCC4)nc3)nc21)C1CCC1` [Example 30, Cyclobutanecarboxylic acid {3-[2-(6-morpholin-4-yl-pyridin-3-ylamino)-pyrrolo[2,3-d]pyrimidin-7-yl]propyl}-amide], greater than 7.00; with `O=C(NCCCn1ccc2cnc(Nc3ccc(N4CCOCC4)nc3)nc21)C1CCCCC1` [Example 24, Cyclohexanecarboxylic acid {3-[2-(6-morpholin-4-yl-pyridin-3-ylamino)-pyrrolo[2,3-d]pyrimidin-7-yl]-propyl}-amide], 6.00 to 7.00.
With `O=C(NCCCn1cc(Cl)c2cnc(Nc3cccc(F)c3)nc21)c1cccs1` [Example 38, Thiophene-2-carboxylic acid {3-[5-chloro-2-(3-fluoro-phenylamino)-pyrrolo[2,3-d]pyrimidin-7-yl]-propyl}-amide] the figure was 6.00 to 7.00.
Consider `O=C(NCCCn1ccc2cnc(Nc3cccc(-n4cncn4)c3)nc21)C1CCC1` [Example 41, Cyclobutanecarboxylic acid {3-[2-(3-1,2,4-triazol-1-yl-phenylamino)-pyrrolo[2,3-d]pyrimidin-7-yl]-propyl}-amide], for which the pIC50 is greater than 7.00.
The same measure for `O=C(NCCCn1ccc2cnc(Nc3ccc4ncccc4c3)nc21)C1CCC1` [Example 50, Cyclobutanecarboxylic acid {3-[2-(quinolin-6-ylamino)-pyrrolo[2,3-d]pyrimidin-7-yl]-propyl}-amide]: greater than 7.00; for `O=C(NCCCn1ccc2cnc(Nc3cccc(NC(=O)N4CCCC4)c3)nc21)c1cccs1` [Example 14, Pyrrolidine-1-carboxylic acid [3-(7-{3-[(thiophene-2-carbonyl)-amino]-propyl}-7H-pyrrolo[2,3-d]pyrimidin-2-ylamino)-phenyl]-amide]: 6.00 to 7.00.
For the molecule `O=C(CC1CCCC1)NCCCn1ccc2cnc(Nc3ccc(N4CCOCC4)nc3)nc21` [Example 25, 2-Cyclopentyl-N-{3-[2-(6-morpholin-4-yl-pyridin-3-ylamino)-pyrrolo[2,3-d]pyrimidin-7-yl]-propyl}-acetamide], the pIC50 is 6.00 to 7.00.
With `O=C(NCCCn1ccc2cnc(Nc3cccnc3)nc21)C1CCC1` [Example 43, Cyclobutanecarboxylic acid {3-[2-(pyridin-3-ylamino)-pyrrolo[2,3-d]pyrimidin-7-yl]-propyl}-amide] the figure was greater than 7.00; with `N#Cc1cn(CCCNC(=O)C2CCC2)c2nc(Nc3cccc(F)c3)ncc12` [Example 37, Cyclobutanecarboxylic acid {3-[5-cyano-2-(3-fluoro-phenylamino)-pyrrolo[2,3-d]pyrimidin-7-yl]-propyl}-amide], 6.00 to 7.00; with `CC(=O)Nc1cccc(Nc2ncc3ccn(CCCNC(=O)C4CCC4)c3n2)c1` [Example 28, Cyclobutanecarboxylic acid {3-[2-(3-acetylamino-phenylamino)-pyrrolo[2,3-d]pyrimidin-7-yl]-propyl}-amide], greater than 7.00.
With `O=C(NCCCn1ccc2cnc(Nc3cccnc3)nc21)c1cccs1` [Example 12, Thiophene-2-carboxylic acid {3-[2-(pyridin-3-ylamino)-pyrrolo[2,3-d]pyrimidin-7-yl]-propyl}-amide] the figure was 6.00 to 7.00.
With `O=C(NCCCn1ccc2cnc(Nc3cccc(CN4CCCCC4)c3)nc21)C1CCC1` [Example 49, Cyclobutanecarboxylic acid {3-[2-(3-piperidin-1-ylmethyl-phenylamino)-pyrrolo[2,3-d]pyrimidin-7-yl]-propyl}-amide], the pIC50 is greater than 7.00.
For `CN1CCN(c2ccc(Nc3ncc4ccn(CCCNC(=O)C5CCC5)c4n3)cn2)CC1` [Example 31, Cyclobutanecarboxylic acid (3-{2-[6-(4-methyl-piperazin-1-yl)-pyridin-3-ylamino]-pyrrolo[2,3-d]pyrimidin-7-yl}-propyl)-amide], the pIC50 was 6.00 to 7.00.
Take `O=C(NCCCn1ccc2cnc(Nc3ccc(N4CCCC4=O)cc3)nc21)C1CCC1` [Example 39, Cyclobutanecarboxylic acid (3-{2-[4-(2-oxo-pyrrolidin-1-yl)-phenylamino]-pyrrolo[2,3-d]pyrimidin-7-yl}-propyl)-amide]: the pIC50 is greater than 7.00.
`O=C(CC1CC1)NCCCn1ccc2cnc(Nc3ccc(N4CCOCC4)nc3)nc21` [Example 18, 2-Cyclopropyl-N-{3-[2-(6-morpholin-4-yl-pyridin-3-ylamino)-pyrrolo[2,3-d]pyrimidin-7-yl]-propyl}-acetamide]: the pIC50 is 6.00 to 7.00.
As for `O=C(NCCCn1ccc2cnc(Nc3ccc(C(=O)N4CCOCC4)cc3)nc21)C1CCC1` [Example 15, Cyclobutanecarboxylic acid (3-{2-[4-(morpholine-4-carbonyl)-phenylamino]-pyrrolo[2,3-d]pyrimidin-7-yl}-propyl)-amide], the pIC50 was greater than 7.00.
With `O=C(NCCCn1ccc2cnc(Nc3ccc(N4CCOCC4)nc3)nc21)c1cnccn1` [Example 17, Pyrazine-2-carboxylic acid {3-[2-(6-morpholin-4-yl-pyridin-3-ylamino)-pyrrolo[2,3-d]pyrimidin-7-yl]-propyl}-amide], the pIC50 is 6.00 to 7.00.
With `O=C(NCCCn1cc(Cl)c2cnc(Nc3cccc(F)c3)nc21)C1CCC1` [Example 34, Cyclobutanecarboxylic acid {3-[5-chloro-2-(3-fluoro-phenylamino)-pyrrolo[2,3-d]pyrimidin-7-yl]-propyl}-amide], the pIC50 was greater than 7.00.
